Test results published in US20070060508A1, “Binding molecules” (priority 2002, published 2007).
Ends that are not written are not given here.

Tested on: Daudi cells
Assay: Cytotoxicity test: NK effector cells (YT) incubated with tumor target cells (Daudi) plus test peptide, LDH release
Format: cell-based
Details: YT and Daudi cells 1:10, 16 h
Protocol: For the cytotoxicity measurement, NK cells, which specifically kill tumor cells, as effector cells were incubated with tumor cells as target cells in the presence of the test peptides. The cytotoxicity measurement was performed by measuring the release of lactate dehydrogenase (LDH) according to the standard protocol by a cytotoxicity test kit (Promega, Germany) and in a microwell plate reader. As NK cells (E), YT cells (DSMZ, Germany) were used. As target cells (T), Daudi cells (DSMZ, Germany) were used. YT and Daudi cells were seeded in microwell plates at a ratio of 1:10 and incubated in the presence of 0.3, 3, 30:M test peptide for 16 h.
On the next day, 10:l of lysis buffer each were added to the cells and the cells were incubated for additional 2 h. Subsequently, 5:l of the agent were transferred into a second microwell plate and combined with 50:l of substrate buffer. After a 30 min incubation, the reaction was terminated by 50:l of stop solution and the absorption of the formed MTT color complex was measured in a microwell plate reader.

Question: Which Cytotoxicity (0.3:M test peptide) does the source give for “APTSSSTKKTQLQLEHFLLDFQMILNGINN [Sequence 2, APTSSSTKKT QLQLEHFLLD FQMILNGINN]” here?
Answer: The Cytotoxicity was 30%.

Question: What about the Cytotoxicity (3:M test peptide) of the same sequence?
Answer: The Cytotoxicity was 80%.

Question: What about the Cytotoxicity (30:M test peptide) of the same sequence?
Answer: Its Cytotoxicity is 10%.

Question: What does the source list for “APTSSSTKKTQLQLEHLLLKLQMILNGINN [Sequence 1, APTSSSTKKT QLQLEHLLLK LQMILNGINN]”?
Answer: Cytotoxicity (0.3:M test peptide): 30%; Cytotoxicity (3:M test peptide): 30%; Cytotoxicity (30:M test peptide): 30%

Question: Which Cytotoxicity (0.3:M test peptide) does the source give for “APTSSSTKKTQLQLEHFLMKFQMILNGINN [Sequence 3, APTSSSTKKT QLQLEHFLMK FQMILNGINN]” here?
Answer: Its Cytotoxicity is 0%.

Question: And the Cytotoxicity (3:M test peptide)?
Answer: Its Cytotoxicity is 20%.

Question: What about the Cytotoxicity (30:M test peptide) of the same sequence?
Answer: Its Cytotoxicity is 0%.
